According to patent US20110217293A1, “Uses of morelloflavone” (priority 2008, published 2011):

System: plasma lipid peroxidation
Assay: Thiobarbituric acid reactive substances (TBARS) assay
Format: in vivo, mouse
Settings: treated Ldlr−/−Apobec1−/− mice, N=12
Procedure: EDTA-added mouse plasma was stored at −80° C. until the assay. The assay was performed using a commercially available kit according to the manufacturer's instructions. The degree of plasma lipid peroxidation was expressed in terms of equivalent malondialdehyde (MDA) concentration (Cayman Chemical Co., Ann Arbor, Mich.).

For `O=C1c2c(O)cc(O)cc2O[C@H](c2ccc(O)cc2)[C@H]1c1c(O)cc(O)c2c(=O)cc(-c3ccc(O)c(O)c3)oc12` [morelloflavone, 5,7, 4′, 5″, 7″, 3″, 4″-heptahydroxy-[3,8″]-flavonylflavanone], the “Thiobarbituric acid reactive substances concentration (plasma)” value was 6.33 ± 1.47 µM.
